Here are results for one compound from patent publication US5621102A, “Process for preparing enantiomerically pure xanthine derivatives” (Cell Therapeutics, Inc., priority 1995, dated 1997).

Data set [1] deals with murine B-cell proliferation. In words: B-cell proliferation assay (anti-mu antibody and/or IL-4). The class given is cell-based. As to conditions: stimulated by anti-mu antibody crosslinked and/or IL-4. On the procedure: A B-cell proliferation assay determines the effect of the inventive compounds on inhibiting proliferation of stimulated B-cells, stimulated by an anti-mu antibody ([…]), IL-4 or PMA (2.5 nM). Ramos B-cell tumor cells or murine splenocytes can be incubated with a stimulating agent, an inventive compound and tritiated thymidine to measure inhibition of cell proliferation caused by the stimulating agent.

For data set [2], the system named is thymocytes. In words: thymocyte costimulator assay (ConA and IL-1α or IL-2). Format: cell-based, mice. As to conditions: drug added two hours prior to activation. As to the method:
CT1501R was added to the cells at the doses indicated two hours prior to activation with ConA and IL-1α or IL-2. Background counts were less than 200 cpm.
A thymocyte costimulator assay is conducted to evaluate the inventive compounds to inhibit activation and proliferation of thymocytes caused by stimulation with Con A and interleukin-1 (IL-1), or […]. Thymuses are obtained from mice (e.g., female Balb/C mice) and the thymuses are removed and dissociated into culture media (e.g., RPMI 1640 without serum supplementation). The dissociated thymus tissue and cell suspension is transferred to centrifuge tubes and allowed to settle, washed with HBSS and resuspended in serum-supplemented culture media (e.g., RPMI 1640 with 10% fetal calf serum). Any contaminating red cells are lysed, and viable cells are resuspended and counted. Thymocytes are plated (e.g., 96-well plates at a density of 2×10^5 cells/well) and a stimulating agent, such as Con A, IL-1 (e.g., IL-1α) or IL-2 is added to the well. The cells are incubated for 4 days at 37 ° C. On the fourth day, the ceils are pulsed with tritiated thymidine and cell proliferation determined. Inventive compounds are added at the time of stimulating agent addition.

Data set [3] concerns endotoxin induced lethality. In words: endotoxin induced lethality in mice (septic shock model). The class given is in vivo, Balb/c mice. As to conditions: for cumulative percent survival: 72 hours post LPS (LPS-only 7%); for survival (Number Surviving/Total): single experiments. As to the method: Animals were treated with 10 μg/gm of LPS (i.v.) Immediately following the LPS (t=0), 2 hrs after the LPS (t=2) or 4 hrs following LPS (t-4) the mice were treated with their first treatment of CT1501R (100 mg/kg, i.p.). The mice were treated with CT1501R three times per day thereafter, and animal survival was monitored.
This example illustrates the effect of CT1501R on survival in mice given a lethal dose of endotoxin. We determined if CT1501R protects against endotoxin induced lethality in a murine model. Septic shock was modeled by endotoxin injection of 6-8 week old female Balb/c mice similar to previously published reports (Ashkenazi et al. Proc. Natl. Acad. Sci. U.S.A. 88: 10535-10539, 1991) under protocols approved by the Animal Use Committee of the Biomembrane Institute, Seattle, Wash. Animals were injected intravaneously (i.v.) with an approximate LD100 dose (10 μg/g) of Salmonella abortus equi-derived endotoxin (Sigma Chemical Co., L-1887) in phosphate buffered saline (PBS). CT1501R at a dose of 100 μg/kg was injected intraperitoneally (IP) 3 times per day ([…]). Control mice were injected at the same times with a similar volume of vehicle control (PBS). Survival was followed for at least 72 hours.
Ten mice were treated each with PB S alone or CT 1501R alone on the same schedule as the experimental mice. […] Endotoxin survival data were summarized from a total of six (6) independent experiments. Summary Table 1 details the results of each of the six experiments. In FIG. 5, each time point represents a minimum of three (3) experiments comprising at least twenty (20) mice per group. A probability analysis of the survival data using a Fisher's Exact One Tailed Test is given as Table 3. Significant protection was conferred if CT1501R was administered immediately after the LPS treatment. The cumulative percent survival at 72 hours post LPS treatment was 60% compared to 7% for the LPS-only treated animals (p=<0.0005; Table 3).

Values joined by “and” are separate entries in the source; they are usually repeats but may differ in a detail not shown here. Identical values can stand only once.

`C[C@@H](O)CCCCn1c(=O)c2c(ncn2C)n(C)c1=O` [CT1501R, (R)-1-(5-hydroxyhexyl)-3,7-dimethylxanthine]: in data set [1], the “inhibition of murine B-cell proliferation” value was “inhibited B-cell proliferation”. Also, the “inhibition of thymocyte proliferation” value in data set [2] was “inhibited thymocyte proliferation in a dose-response manner”. In addition, the figures for the cumulative percent survival in data set [3] (CT1501R four hours after LPS), in data set [3] (CT1501R immediately after LPS) and in data set [3] (CT1501R two hours after LPS) were 37%, 60% and 55%, respectively. Besides, the “survival compared with published results for Genentech's bifunctional TNF receptor” value in data set [3] (drug given approximately simultaneously with or two hours following lethal LPS) is given as “consistently was better at improving survival than Genentech's TNF receptor”. Also, the “survival (Number Surviving/Total)” value is 4/5 and 5/5 and 9/10 in data set [3] (first CT-1501R dose t = 0 Hr post LPS, 24 Hr post LPS); 4/5 and 5/5 and 7/10 in data set [3] (first CT-1501R dose t = 0 Hr post LPS, 48 Hr post LPS); 4/5 and 5/5 and 3/10 in data set [3] (first CT-1501R dose t = 0 Hr post LPS, 72 Hr post LPS); 4/5 and 5/5 and 5/10 in data set [3] (first CT-1501R dose t = 2 Hr post LPS, 24 Hr post LPS); 3/5 and 5/5 and 3/10 in data set [3] (first CT-1501R dose t = 2 Hr post LPS, 48 Hr post LPS); 3/5 and 5/5 and 3/10 in data set [3] (first CT-1501R dose t = 2 Hr post LPS, 72 Hr post LPS). In addition, the “survival (Number Surviving/Total)” value was 5/5 and 7/10 and 3/10 in data set [3] (first CT-1501R dose t = 4 Hr post LPS, 24 Hr post LPS); 3/5 and 5/10 and 4/10 and 3/10 in data set [3] (first CT-1501R dose t = 4 Hr post LPS, 48 Hr post LPS); 3/5 and 5/10 and 2/10 and 3/10 in data set [3] (first CT-1501R dose t = 4 Hr post LPS, 72 Hr post LPS). The “adverse effects, drug alone without endotoxin” value in data set [3] (ten mice, same schedule as the experimental mice) is recorded as “no adverse effects noted”.
